Consider 1 molecule from publication PMC12107143, “MALT1 inhibitor MI-2 induces ferroptosis by direct targeting of GPX4” (Proceedings of the National Academy of Sciences of the …, 2025).

This assay has as its target T1, MALT1 (Homo sapiens, UniProt Q9UDY8).
T1 construct: GST-MALT1 (aa 325–760)
T1 sequence (Q9UDY8 325-760): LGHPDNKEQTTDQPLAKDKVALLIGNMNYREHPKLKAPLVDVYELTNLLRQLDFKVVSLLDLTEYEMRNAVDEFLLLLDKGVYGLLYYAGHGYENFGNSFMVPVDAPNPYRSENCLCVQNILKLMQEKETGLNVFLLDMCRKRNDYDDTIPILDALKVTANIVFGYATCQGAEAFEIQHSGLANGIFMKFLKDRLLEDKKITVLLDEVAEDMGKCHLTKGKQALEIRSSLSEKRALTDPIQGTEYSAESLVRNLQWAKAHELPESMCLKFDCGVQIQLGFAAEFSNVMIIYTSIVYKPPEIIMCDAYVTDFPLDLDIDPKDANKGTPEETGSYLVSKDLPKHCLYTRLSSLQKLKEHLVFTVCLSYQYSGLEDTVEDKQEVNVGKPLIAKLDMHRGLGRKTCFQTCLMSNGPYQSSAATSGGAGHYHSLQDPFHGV
Briefly: recombinant GST-MALT1 protease assay with fluorescence substrate Ac-LRSR-AMC. Format: biochemical.

Turning to `COCCOc1nc(-c2ccc(Cl)c(Cl)c2)n(-c2ccc(NC(=O)CCl)cc2)n1` [MI-2], the IC50 (in general, the midpoint of a concentration-inhibition curve) was found to be 2100 nM.
